From US12186400B2, “Micromolecular compound specifically degrading tau protein, and application thereof” (Shanghai Qiangrui Biotech Co., Ltd., priority 2018, dated 2025)

Key:
tau protein [1] = molecular target: T1, tau protein (Homo sapiens, UniProt P10636); assay: Fluorescence photograph of total tau protein content in HEK293 tau cells; type: cell-based; conditions: different concentrations
T1 construct: HEK293 tau cells (stably expressing wild type full length tau protein); expressed in transfected cells

tau protein [2] = molecular target: T1, tau protein; assay: Immunoblot of total tau protein (tau5 antibody) in HEK293 tau cells after 24 h treatment; type: cell-based; conditions: HEK293 tau cells stably expressing wild type full length tau, effect at 1 μM, 10 μM and 20 μM (tested 0, 0.01, 0.1, 1, 10, 20 μM)
Procedure: HEK293 tau cells (stably expressing wild type full length tau protein) is subjected to cell culture and pharmaceutical treatment, and after the HEK293 tau cells were cultured in DMEM medium for 24 hours, the micromolecular compounds prepared in the above example with various concentrations (0 μM, 0.01 μM, 0.1 μM, 1 μM, 10 μM, 20 μM) were added, the cells were further cultured for 24 hours. The cells were lysed with RIPA liquid and the cell extraction solution was collected, the proteins in the cell extraction solution were separated with 10% polyacrylamide gel electrophoresis (PAGE), and subsequently immunoblotted with anti-total tau protein antibody (tau5), and the tau protein content was quantitatively analyzed. The detailed operation procedures for preparation of samples, measurement of protein content in the samples, and the immunoblotting process were performed with reference to the following content.
(1) The growth condition and density of cells in the cell culture plates were observed under a microscope;
(2) PBS and cell culture plate were precooled on ice, a mixed liquor consisting of 1× buffer solution+PMSF (1:100)+protease inhibitor cocktail (1:1000) was prepared; 80 μl of the mixed liquor was added into each pore of the 6-well plate, and 150 μl of the mixed liquor was added into a culture dish with a diameter of 6 cm; […]

T1 sequence (P10636 1-441 isoform P10636-8): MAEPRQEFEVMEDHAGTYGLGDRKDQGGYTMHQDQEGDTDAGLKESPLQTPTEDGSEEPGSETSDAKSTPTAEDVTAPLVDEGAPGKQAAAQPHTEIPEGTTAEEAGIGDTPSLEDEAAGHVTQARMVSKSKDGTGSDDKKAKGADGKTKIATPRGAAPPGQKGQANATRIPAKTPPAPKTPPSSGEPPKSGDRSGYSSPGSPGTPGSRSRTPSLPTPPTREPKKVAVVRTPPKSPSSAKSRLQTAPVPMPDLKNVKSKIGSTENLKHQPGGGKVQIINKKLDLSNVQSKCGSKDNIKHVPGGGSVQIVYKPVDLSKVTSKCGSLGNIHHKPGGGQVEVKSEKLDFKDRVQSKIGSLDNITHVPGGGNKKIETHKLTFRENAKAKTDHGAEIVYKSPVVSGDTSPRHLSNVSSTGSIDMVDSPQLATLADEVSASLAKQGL

CC(=O)N1CCCN(c2nc(NCCc3cccs3)nc(N(C)CC(=O)NCCOCCOCCOCC(=O)N[C@H](C(=O)N3C[C@H](O)C[C@H]3C(=O)NCc3ccc(-c4scnc4C)cc3)C(C)(C)C)n2)CC1 [Compound 4]
total tau protein content in the HEK293 tau cells (fluorescence photograph, FIG. 4) (tau protein [1]): reducing total tau protein content in the HEK293 tau cells
content of tau protein in cells (immunoblot, quantitative analysis, FIG. 2 and FIG. 3) (tau protein [2]): dose-dependently reduce the content of tau protein in cells
